According to PubChem BioAssay (NCI):
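Interpolation was linear, between the two tested concentrations surrounding the appropriate level; five concentrations were tested over 48 hours in 96-well plates. The concentration for full growth arrest is given as TGI.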

Columns and labels:
Assay in all cases: NCI tumour cell line growth inhibition, 48 h
NCI/ADR-RES ovarian = test system: NCI/ADR-RES ovarian
HCT-116 colon = test system: HCT-116 colon
RPMI-8226 leukemia = test system: RPMI-8226 leukemia
UACC-62 melanoma = test system: UACC-62 melanoma
UACC-257 melanoma = test system: UACC-257 melanoma
HCT-15 colon = test system: HCT-15 colon
M14 melanoma = test system: M14 melanoma
HOP-62 NSCLC = test system: HOP-62 NSCLC
UO-31 renal = test system: UO-31 renal
SR leukemia = test system: SR leukemia
ACHN renal = test system: ACHN renal
MALME-3M melanoma = test system: MALME-3M melanoma
HL-60(TB) leukemia = test system: HL-60(TB) leukemia
OVCAR-5 ovarian = test system: OVCAR-5 ovarian
A498 renal = test system: A498 renal
RXF 393 renal = test system: RXF 393 renal
SNB-75 CNS = test system: SNB-75 CNS
SK-OV-3 ovarian = test system: SK-OV-3 ovarian
NCI-H226 lung = test system: NCI-H226 lung

| SMILES | TGI (NCI/ADR-RES ovarian) [µM] | TGI (HCT-116 colon) [µM] | TGI (RPMI-8226 leukemia) [µM] | TGI (UACC-62 melanoma) [µM] | TGI (UACC-257 melanoma) [µM] | TGI (HCT-15 colon) [µM] | TGI (M14 melanoma) [µM] | TGI (HOP-62 NSCLC) [µM] | TGI (UO-31 renal) [µM] | TGI (SR leukemia) [µM] | TGI (ACHN renal) [µM] | TGI (MALME-3M melanoma) [µM] | TGI (HL-60(TB) leukemia) [µM] | TGI (OVCAR-5 ovarian) [µM] | TGI (A498 renal) [µM] | TGI (RXF 393 renal) [µM] | TGI (SNB-75 CNS) [µM] | TGI (SK-OV-3 ovarian) [µM] | TGI (NCI-H226 lung) [µM] |
| --- | --- | --- | --- | --- | --- | --- | --- | --- | --- | --- | --- | --- | --- | --- | --- | --- | --- | --- | --- |
| O=C1C=CC(=O)c2c(NCC3CC3)ccc(NCC3CC3)c21 | > 100 | > 100 | 47.4 | 65.3 | 61.8 | > 100 | 56.8 | > 100 | > 100 | > 100 | > 100 | 49.2 | 31.8 | > 100 | > 100 | – | – | – | – |
| NC1=NNC2(C(=O)N1)c1ccccc1-c1ccccc12 | > 10 | > 10 | > 10 | – | – | > 10 | > 10 | > 10 | > 10 | > 10 | > 10 | > 10 | > 10 | > 10 | > 10 | > 10 | > 10 | > 10 | > 10 |
| COc1cc(NCc2ccc3nc(-c4ccccc4)c(N)nc3c2)cc(OC)c1OC | 57.8 | 33.7 | – | 72.6 | 51.4 | > 100 | 37.8 | > 100 | > 100 | > 100 | > 100 | 65.9 | 49.7 | > 100 | 75.3 | 58.9 | 73.5 | > 100 | > 100 |
| C=C1CCC2CC1[C@@H](C(=O)c1c[nH]c3ccccc13)NC2(C)C (stereo not given in full) | > 37.5 | > 37.5 | > 37.5 | > 37.5 | > 37.5 | > 37.5 | – | > 37.5 | > 37.5 | > 37.5 | > 37.5 | > 37.5 | > 37.5 | > 37.5 | > 37.5 | > 37.5 | > 37.5 | – | > 37.5 |
| O=C1c2cc3c(cc2CC12Cc1cc4c(cc1C2=O)CCC4)CCC3 | > 100 | > 100 | > 100 | > 100 | > 100 | > 100 | > 100 | > 100 | > 100 | > 100 | > 100 | > 100 | > 100 | > 100 | > 100 | > 100 | > 100 | > 100 | > 100 |
| CCOP(=O)(OCC)C(Nc1cccc([N+](=O)[O-])c1)c1ccccc1 (stereo not given) | > 100 | > 100 | > 100 | > 100 | > 100 | > 100 | > 100 | > 100 | > 100 | > 100 | > 100 | > 100 | > 100 | > 100 | > 100 | > 100 | > 100 | > 100 | > 100 |
| Cc1nc2ccc(F)cc2c2c1CCO2 | > 100 | > 100 | > 100 | > 100 | > 100 | > 100 | > 100 | – | > 100 | > 100 | > 100 | > 100 | 55.2 | > 100 | > 100 | > 100 | > 100 | – | > 100 |
| CCO[C@@H]1CCC(S(=O)c2ccc(C)cc2)=CO1 (stereo not given in full) | > 100 | > 100 | > 100 | > 100 | > 100 | > 100 | – | > 100 | > 100 | > 100 | > 100 | > 100 | > 100 | > 100 | > 100 | > 100 | > 100 | – | > 100 |
| COC(=O)C12OC(C)(C(CC(=O)OC(C)(C)C)C1=O)C1C(=O)N(c3ccccc3)C(=O)C12 (stereo not given) | > 100 | > 100 | > 100 | > 100 | > 100 | > 100 | > 100 | > 100 | > 100 | > 100 | > 100 | > 100 | – | > 100 | > 100 | > 100 | > 100 | > 100 | > 100 |
| N#Cc1c(-c2ccc(Cl)cc2)c(C#N)c(=O)n(NS(=O)(=O)c2ccccc2)c1S | 74.2 | 91.2 | 75.6 | 58.3 | > 100 | 49.6 | > 100 | – | 45.3 | 56.5 | 85.3 | > 100 | 60 | > 100 | > 100 | > 100 | > 100 | > 100 | 77.1 |
| C=CCOc1ccc(/C(N=Nc2ccccc2)=N/NC(=O)c2ccccc2)cc1OC | > 100 | > 100 | – | > 100 | > 100 | > 100 | > 100 | > 100 | > 100 | > 100 | > 100 | > 100 | > 100 | > 100 | > 100 | > 100 | > 100 | – | > 100 |
| COc1cc(Cn2c(=S)ss/c2=N\C(=S)N(C)C)cc(OC)c1OC | > 100 | > 70.7 | > 85.8 | 58.6 | > 100 | > 70.5 | > 70.7 | > 84.1 | > 100 | > 61.2 | > 88.8 | > 100 | > 61.5 | > 100 | > 100 | 29.5 | 53.9 | > 63.1 | > 71 |
| CN=CN(C)c1c2ccccc2nc2ccccc12 | > 100 | > 100 | > 100 | > 100 | > 100 | > 100 | > 100 | > 100 | 28.1 | > 100 | > 100 | > 100 | > 100 | > 100 | > 100 | > 100 | > 100 | > 100 | > 100 |
| O=C(O)CCC(NC(=O)c1ccc(Nc2cnc3ccc(C(F)(F)F)cc3n2)cc1)C(=O)O (stereo not given) | > 100 | > 100 | > 100 | > 100 | > 100 | > 100 | > 100 | > 100 | > 100 | > 100 | > 100 | > 100 | > 100 | > 100 | > 100 | > 100 | > 100 | > 100 | > 100 |
| OCC1OC(NCCNCCNC2OC(CO)C(O)C(O)C2O)C(O)C(O)C1O (stereo not given) | > 100 | > 100 | > 100 | > 100 | > 100 | > 100 | > 100 | > 100 | > 100 | > 100 | > 100 | > 100 | > 100 | > 100 | > 100 | > 100 | > 100 | > 100 | > 100 |
| C/C(=N\Nc1ccccc1Br)c1cccc(/C(C)=N/Nc2ccccc2Br)n1 | > 100 | > 100 | > 100 | – | > 100 | > 100 | > 100 | > 100 | > 100 | > 100 | > 100 | > 100 | > 100 | > 100 | > 100 | 42.4 | 36.8 | – | > 100 |
| c1ccc(-c2cs[s+]c2)cc1 | > 100 | > 100 | – | > 100 | > 100 | > 100 | > 100 | > 100 | > 100 | > 100 | > 100 | > 100 | > 100 | > 100 | > 100 | > 100 | > 100 | > 100 | > 100 |
| CCCCCCCCCCCCCCCCCCNc1ccn(C2OC(CO)C(O)C2O)c(=O)n1 (stereo not given) | > 100 | > 100 | > 100 | > 100 | > 100 | > 100 | > 100 | > 100 | > 100 | > 100 | > 100 | > 100 | 13.6 | > 100 | > 100 | > 100 | > 100 | > 100 | > 100 |
| CCOP(=O)(OCC)/C(C#N)=C/c1ccc(-c2ccc(F)cc2F)o1 | 58.9 | 32.3 | 51.9 | 23.4 | 26.8 | 28.7 | 31.7 | 33.8 | 26.3 | 33.2 | 26.6 | 33.4 | 34.9 | 31.7 | 28.8 | > 100 | 61.3 | 26.9 | 36 |
| CCOP1(=O)C=C(Sc2ccc([N+](=O)[O-])cc2[N+](=O)[O-])C(C)(C)O1 (stereo not given) | > 76.5 | 18.8 | 39.2 | 26.4 | 25 | 36.7 | 24.5 | 56.2 | 28.3 | 7.17 | 28 | 31.4 | 77.3 | 43.4 | 44.5 | 31.8 | 50.3 | 66.2 | 47.2 |
| COc1ccc(-c2cc(-c3ccc(Nc4ccnc5cc(Cl)ccc45)cc3)nc(N)c2C#N)cc1 | > 100 | > 100 | > 100 | > 100 | – | > 100 | > 100 | > 100 | 70.1 | > 100 | > 100 | > 100 | > 100 | > 100 | > 100 | > 100 | > 100 | > 100 | > 100 |
| C(=Nc1ccc(-c2cc(-c3ccccc3)nc3ccc4ccccc4c23)cc1)c1ccccc1 | > 100 | > 100 | > 100 | 62.1 | 92.1 | > 100 | 50.4 | 56.1 | 73.1 | > 100 | > 100 | > 100 | > 100 | > 100 | 70.3 | 47.9 | > 100 | > 100 | 66.3 |
| C#CCOCn1ccc(=O)[nH]c1=O | > 100 | > 100 | > 100 | > 100 | > 100 | > 100 | > 100 | > 100 | > 100 | > 100 | > 100 | > 100 | > 100 | > 100 | > 100 | – | > 100 | > 100 | > 100 |
| CC(O)(/C=C/c1ccccc1)P(=O)(O)c1ccccc1 (stereo not given) | > 100 | > 100 | – | > 100 | > 100 | > 100 | > 100 | > 100 | – | > 100 | > 100 | > 100 | > 100 | > 100 | > 100 | > 100 | > 100 | > 100 | > 100 |
| Cc1cc(C)nc(NC(=S)Nc2ccccc2Cl)c1 | > 100 | > 100 | > 100 | > 100 | > 100 | > 100 | > 100 | > 100 | > 100 | > 100 | – | > 100 | > 100 | > 100 | > 100 | > 100 | > 100 | > 100 | > 100 |
